Data: patent publication US20100041089A1, “IMPROVED METHOD FOR DETECTING CHEMICAL […]” (priority 2006, published 2010)

Test system: yeast genes (expressed mRNA)
Assay: DNA chip measurement of expressed mRNA of yeast genes after culture with a toxic chemical substance
Assay type: cell-based, Saccharomyces cerevisiae S288C
Outline: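 Each expression value is the mRNA level in chemical-treated yeast divided by that in untreated yeast, from Cy3/Cy5 fluorescence on a whole-genome chip. Log-phase S288C cells in YPD at 25° C had received a sublethal, growth-inhibiting dose for two hours. Intensity denotes control expression relative to the all-gene mean.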

With COc1cc(CNC(=O)CCCCC=CC(C)C)ccc1O [(12), 8-Methyl-N-vanillyl-6-nonenamide] the “The level of expressed mRNA in the presence of chemical substance/The level of expressed mRNA in the absence of chemical substance” value (yeast gene YJL151C, cultured two hours with substance) was 1.3, the “The level of expressed mRNA in the presence of chemical substance/The level of expressed mRNA in the absence of chemical substance” value (yeast gene YJL152W, cultured two hours with substance) was 1.0 and the “The level of expressed mRNA in the presence of chemical substance/The level of expressed mRNA in the absence of chemical substance” value (yeast gene YJL161W, cultured two hours with substance) was 1.0. The “The level of expressed mRNA in the presence of chemical substance/The level of expressed mRNA in the absence of chemical substance” value (yeast gene YJL165C (stress protein genes)) was 0.9, the “The level of expressed mRNA in the presence of chemical substance/The level of expressed mRNA in the absence of chemical substance” value (yeast gene YJL171C, cultured two hours with substance) was 1.0 and the “The level of expressed mRNA in the presence of chemical substance/The level of expressed mRNA in the absence of chemical substance” value (yeast gene YJL186W, cultured two hours with substance) was 0.6. The “The level of expressed mRNA in the presence of chemical substance/The level of expressed mRNA in the absence of chemical substance” value (yeast gene YJR008W, cultured two hours with substance) was 1.3, the “The level of expressed mRNA in the presence of chemical substance/The level of expressed mRNA in the absence of chemical substance” value (yeast gene YJR054W, cultured two hours with substance) was 0.9 and the “The level of expressed mRNA in the presence of chemical substance/The level of expressed mRNA in the absence of chemical substance” value (yeast gene YKL071W, cultured two hours with substance) was 1.0. The “The level of expressed mRNA in the presence of chemical substance/The level of expressed mRNA in the absence of chemical substance” value (yeast gene YKL086W, cultured two hours with substance) was 0.6, the “The level of expressed mRNA in the presence of chemical substance/The level of expressed mRNA in the absence of chemical substance” value (yeast gene YKL151C, cultured two hours with substance) was 1.0 and the “The level of expressed mRNA in the presence of chemical substance/The level of expressed mRNA in the absence of chemical substance” value (yeast gene YKL152C, cultured for two hours with substance) was 1.5. The “The level of expressed mRNA in the presence of chemical substance/The level of expressed mRNA in the absence of chemical substance” value (yeast gene YKL153W, cultured two hours with substance) was 1.1, the “The level of expressed mRNA in the presence of chemical substance/The level of expressed mRNA in the absence of chemical substance” value (yeast gene YKL195W, cultured two hours with substance) was 1.1 and the “The level of expressed mRNA in the presence of chemical substance/The level of expressed mRNA in the absence of chemical substance” value (yeast gene YKL213C, metabolism protein genes) was 0.9. For the same compound, the “The level of expressed mRNA in the presence of chemical substance/The level of expressed mRNA in the absence of chemical substance” value (yeast gene YKR075C, cultured two hours with substance) was 2.3, the “The level of expressed mRNA in the presence of chemical substance/The level of expressed mRNA in the absence of chemical substance” value (yeast gene YKR091W, cultured two hours with substance) was 0.9 and the “The level of expressed mRNA in the presence of chemical substance/The level of expressed mRNA in the absence of chemical substance” value (yeast gene YLR008C, cultured two hours with substance) was 3.5. For the same compound, the “The level of expressed mRNA in the presence of chemical substance/The level of expressed mRNA in the absence of chemical substance” value (yeast gene YLR054C, cultured two hours with substance) was 1.1, the “The level of expressed mRNA in the presence of chemical substance/The level of expressed mRNA in the absence of chemical substance” value (yeast gene YLR103C, DNA repair protein genes, cultured two hours with substance) was 1.6 and the “The level of expressed mRNA in the presence of chemical substance/The level of expressed mRNA in the absence of chemical substance” value (yeast gene YLR149C, cultured two hours with substance) was 2.0. For the same compound, the “The level of expressed mRNA in the presence of chemical substance/The level of expressed mRNA in the absence of chemical substance” value (yeast gene YLR152C, cultured two hours with substance) was 1.0, the “The level of expressed mRNA in the presence of chemical substance/The level of expressed mRNA in the absence of chemical substance” value (yeast gene YLR194C, cultured two hours with substance) was 1.6 and the “The level of expressed mRNA in the presence of chemical substance/The level of expressed mRNA in the absence of chemical substance” value (yeast gene YLR273C) was 0.9. The “The level of expressed mRNA in the presence of chemical substance/The level of expressed mRNA in the absence of chemical substance” value (yeast gene YLR324W, cultured two hours with substance) was 0.8, the “The level of expressed mRNA in the presence of chemical substance/The level of expressed mRNA in the absence of chemical substance” value (yeast gene YLR345W, cultured for two hours with substance) was 1.6 and the “The level of expressed mRNA in the presence of chemical substance/The level of expressed mRNA in the absence of chemical substance” value (yeast gene YLR346C, cultured two hours with substance) was 4.2. The “The level of expressed mRNA in the presence of chemical substance/The level of expressed mRNA in the absence of chemical substance” value (yeast gene YLR348C, metabolism protein genes) was 0.9, the “The level of expressed mRNA in the presence of chemical substance/The level of expressed mRNA in the absence of chemical substance” value (yeast gene YLR350W, cultured two hours with substance) was 1.8 and the “The level of expressed mRNA in the presence of chemical substance/The level of expressed mRNA in the absence of chemical substance” value (yeast gene YLR387C, cultured two hours with substance) was 1.1. For the same compound, the “The level of expressed mRNA in the presence of chemical substance/The level of expressed mRNA in the absence of chemical substance” value (yeast gene YLR460C, cultured two hours with substance) was 0.4, the “The level of expressed mRNA in the presence of chemical substance/The level of expressed mRNA in the absence of chemical substance” value (yeast gene YML054C, cultured for two hours with substance) was 1.8 and the “The level of expressed mRNA in the presence of chemical substance/The level of expressed mRNA in the absence of chemical substance” value (yeast gene YML117W, cultured two hours with substance) was 0.8. The “The level of expressed mRNA in the presence of chemical substance/The level of expressed mRNA in the absence of chemical substance” value (yeast gene YMR009W, cultured two hours with substance) was 0.6, the “The level of expressed mRNA in the presence of chemical substance/The level of expressed mRNA in the absence of chemical substance” value (yeast gene YMR067C, cultured two hours with substance) was 1.1 and the “The level of expressed mRNA in the presence of chemical substance/The level of expressed mRNA in the absence of chemical substance” value (yeast gene YMR090W, cultured two hours with substance) was 2.2. For the same compound, the “The level of expressed mRNA in the presence of chemical substance/The level of expressed mRNA in the absence of chemical substance” value (yeast gene YMR095C, cultured two hours with substance) was 0.8, the “The level of expressed mRNA in the presence of chemical substance/The level of expressed mRNA in the absence of chemical substance” value (yeast gene YMR097C, cultured two hours with substance) was 1.2 and the “The level of expressed mRNA in the presence of chemical substance/The level of expressed mRNA in the absence of chemical substance” value (yeast gene YMR102C, cultured two hours with substance) was 2.4. The “The level of expressed mRNA in the presence of chemical substance/The level of expressed mRNA in the absence of chemical substance” value (yeast gene YMR107W, cultured two hours with substance) was 0.8, the “The level of expressed mRNA in the presence of chemical substance/The level of expressed mRNA in the absence of chemical substance” value (yeast gene YMR180C, cultured two hours with substance) was 1.2 and the “The level of expressed mRNA in the presence of chemical substance/The level of expressed mRNA in the absence of chemical substance” value (yeast gene YMR184W, cultured two hours with substance) was 1.7. For the same compound, the “The level of expressed mRNA in the presence of chemical substance/The level of expressed mRNA in the absence of chemical substance” value (yeast gene YMR191W, cultured two hours with substance) was 1.8, the “The level of expressed mRNA in the presence of chemical substance/The level of expressed mRNA in the absence of chemical substance” value (yeast gene YMR215W, cultured two hours with the chemical substance) was 0.4 and the “The level of expressed mRNA in the presence of chemical substance/The level of expressed mRNA in the absence of chemical substance” value (yeast gene YMR295C, cultured two hours with substance) was 1.1. The “The level of expressed mRNA in the presence of chemical substance/The level of expressed mRNA in the absence of chemical substance” value (yeast gene YMR315W, cultured two hours with substance) was 2.0, the “The level of expressed mRNA in the presence of chemical substance/The level of expressed mRNA in the absence of chemical substance” value (yeast gene YMR316W, cultured two hours with substance) was 1.9 and the “The level of expressed mRNA in the presence of chemical substance/The level of expressed mRNA in the absence of chemical substance” value (yeast gene YNL044W, cultured two hours with substance) was 1.0. The “The level of expressed mRNA in the presence of chemical substance/The level of expressed mRNA in the absence of chemical substance” value (yeast gene YNL045W, metabolism protein genes) was 0.9 and the “The level of expressed mRNA in the presence of chemical substance/The level of expressed mRNA in the absence of chemical substance” value (yeast gene YNL074C, cultured two hours with substance) was 0.9.
